Results reported in patent US8399683B2 (TetraLogic Pharmaceuticals, priority 2008, dated 2013).

Columns and labels:
XIAP BIR-3 = biological target: T1, XIAP BIR-3 (Homo sapiens, UniProt P98170); assay: Fluorescence polarization binding affinity to XIAP BIR-3 (competition with AbuRPF-K(5-Fam)-NH2); settings: 5 nM labeled peptide, 40 nM BIR3, 15 min at RT, pH 7.5; reported as ranges
T1 construct: 40 nM of the respective IAP BIR3
In short: (§1)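 Test peptides at varied concentrations competed with 5 nM fluorescent Smac-mimetic tracer for 40 nM BIR3 domain, 15 min at RT in 0.1M potassium phosphate pH 7.5 with […] bovine g-globulin. Polarization (mP) read at 485/520 nm; KD reported in bins (A=<0.1 μM, B=0.1–1 μM, C>1–10 μM, D=>10 μM).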

SK-OV-3 cells = assay: Growth inhibition of ovarian cancer cell line SK-OV-3 (MTT assay, cell survival); type: cell-based; settings: Homo sapiens, drug concentration that results in 50% cell survival, 72 hrs incubation, reported as ranges
In short: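 After overnight seeding in McCoy's medium with 10% FBS, SK-OV-3 cells were exposed to compound at 0.003-10 μM for 72 hrs at 37° C. MTT was then added for 3 h, with DMSO solubilization and OD read at 535 nm. CC50 is the concentration giving 50% survival relative to untreated control, reported as ranges.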

cIAP-1 BIR-3 = cIAP-1 BIR-3 (Homo sapiens, UniProt Q13490); assay: Fluorescence polarization binding affinity to cIAP-1 BIR-3 (competition with AbuRPF-K(5-Fam)-NH2); settings: 5 nM labeled peptide, 40 nM BIR3, 15 min at RT, pH 7.5; reported as ranges; read-out: KD (c-IAP-1 BIR3)
In short: as §1

T1 sequence (P98170 241-356 limits assumed): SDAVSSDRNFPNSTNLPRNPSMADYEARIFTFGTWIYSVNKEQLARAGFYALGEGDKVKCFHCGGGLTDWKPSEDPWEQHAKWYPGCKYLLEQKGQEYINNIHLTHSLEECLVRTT
Chain of cIAP-1 BIR-3 (Q13490 266-352 limits assumed): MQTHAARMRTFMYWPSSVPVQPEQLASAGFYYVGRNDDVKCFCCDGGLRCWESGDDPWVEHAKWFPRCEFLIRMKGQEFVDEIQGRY

Row | Compound | Kd (XIAP BIR-3) [nM] | Kd (cIAP-1 BIR-3) [nM] | CC50 (SK-OV-3 cells) [nM]
1 | CN[C@@H](C)C(=O)N[C@H](C(=O)N1CC[C@H]2NC[C@H](c3cn(Cc4ccccc4)c4cc(F)ccc34)[C@H]21)C1CCCCC1 [Example 91] | < 100 | < 100 | 100 to 1000
2 | C[C@H](N)C(=O)N[C@H](C(=O)N1CC[C@H]2NC[C@H](c3cn(Cc4ccccc4)c4cc(F)ccc34)[C@H]21)C1CCCCC1 [Example 92] | < 100 | < 100 | 1000 to 10000
3 | CO[C@H](C)[C@H](NC(=O)[C@H](C)N)C(=O)N1CC[C@H]2NC[C@H](c3cn(Cc4ccccc4)c4cc(F)ccc34)[C@H]21 [Example 93] | < 100 | < 100 | 1000 to 10000
4 | CC(=O)N1C[C@H](c2c[nH]c3cc(F)ccc23)[C@@H]2[C@H]1CCN2C(=O)[C@@H](NC(=O)[C@H](C)N)C1CCCCC1 [Example 94] | < 100 | < 100 | 1000 to 10000
5 | CN[C@@H](C)C(=O)NC(C)C(=O)N1CC[C@@H]2[C@H]1[C@@H](c1c[nH]c3cc(F)ccc13)CN2C(C)=O (stereo partly drawn) [Example 95] | < 100 | < 100 | 100 to 1000
6 | CN[C@@H](C)C(=O)N[C@H](C(=O)N1CC[C@@H]2[C@H]1[C@H](c1c[nH]c3cc(F)ccc13)CN2C(C)=O)C1CCCCC1 [Example 96] | 1000 to 10000 | 100 to 1000 | 1000 to 10000
7 | CN[C@@H](C)C(=O)N[C@H](C(=O)N1CC[C@@H]2[C@H]1[C@@H](c1c[nH]c3ccccc13)CN2C1CCCCC1)[C@@H](C)OC [Example 97] | 1000 to 10000 | 100 to 1000 | 100 to 1000
8 | CN[C@@H](C)C(=O)N[C@H](C(=O)N1CC[C@@H]2[C@H]1[C@@H](c1c[nH]c3ccccc13)CN2C(C)C)C1CCCCC1 [Example 98] | 1000 to 10000 | 100 to 1000 | 100 to 1000
9 | CN[C@@H](C)C(=O)N[C@H](C(=O)N1CC[C@@H]2[C@H]1[C@@H](c1c[nH]c3cc(F)ccc13)CN2C(=O)OCc1ccccc1)C1CCCCC1 [Example 99] | < 100 | < 100 | < 100
10 | CN[C@@H](C)C(=O)N[C@H](C(=O)N1CC[C@@H]2[C@H]1[C@@H](c1c[nH]c3cc(F)ccc13)CN2Cc1ccccc1)[C@@H](C)OC [Example 100] | < 100 | < 100 | < 100

Continued, in another order:

Row | Kd (XIAP BIR-3) [nM] | Kd (cIAP-1 BIR-3) [nM] | Compound | CC50 (SK-OV-3 cells) [nM]
11 | 100 to 1000 | < 100 | CN[C@@H](C)C(=O)N[C@H](C(=O)N1CC[C@@H]2[C@H]1[C@@H](c1c[nH]c3cc(F)ccc13)CN2Cc1ccccc1)[C@@H](C)O [Example 101] | 100 to 1000
12 | 1000 to 10000 | 100 to 1000 | CN[C@@H](C)C(=O)N[C@@H](COC)C(=O)N1CC[C@@H]2[C@H]1[C@@H](c1c[nH]c3cc(F)ccc13)CN2Cc1ccccc1 [Example 102] | 1000 to 10000
13 | 1000 to 10000 | 100 to 1000 | CN[C@@H](C)C(=O)N[C@@H](CO)C(=O)N1CC[C@@H]2[C@H]1[C@@H](c1c[nH]c3cc(F)ccc13)CN2Cc1ccccc1 [Example 103] | 1000 to 10000
14 | < 100 | < 100 | CN[C@@H](C)C(=O)N[C@H](C(=O)N1CC[C@@H]2[C@H]1[C@@H](c1c[nH]c3cc(F)ccc13)CN2Cc1ccccc1)C(C)(C)C [Example 104] | < 100
15 | 100 to 1000 | < 100 | CN[C@@H](C)C(=O)N[C@H](C(=O)N1CC[C@@H]2[C@H]1[C@@H](c1c[nH]c3cc(F)ccc13)CN2Cc1ccccc1)C(C)C [Example 105] | < 100
16 | > 10000 | 100 to 1000 | CC[C@H](NC(=O)[C@H](C)NC)C(=O)N1CC[C@@H]2[C@H]1[C@H](c1c[nH]c3cc(F)ccc13)CN2Cc1ccccc1 [Example 106] | 1000 to 10000
17 | < 100 | < 100 | CN[C@@H](C)C(=O)N[C@H](C(=O)N1CC[C@@H]2[C@H]1[C@@H](c1c[nH]c3cc(F)ccc13)CN2Cc1ccccc1)C1CCCCC1 [Example 107] | 100 to 1000
18 | 1000 to 10000 | < 100 | CN[C@@H](C)C(=O)N[C@H](C(=O)N1CC[C@@H]2[C@H]1CCN2C(=O)OCc1ccccc1)C1CCCCC1 [Example 108, 4-[2-Cyclohexyl-2-(2-methylamino-propionylamino)-acetyl]hexahydro-pyrrolo[3,2-b]pyrrole-1-carboxylic acid benzyl ester] | 100 to 1000
19 | 1000 to 10000 | 100 to 1000 | CN[C@@H](C)C(=O)N[C@H](C(=O)N1CC[C@H]2NCC[C@H]21)C1CCCCC1 [Example 109, N-[1-Cyclohexyl-2-(hexahydro-pyrrolo[3,2-b]pyrrol-1-yl)-2-oxo-ethyl]-2-methylamino-propionamide] | > 10000
20 | 1000 to 10000 | < 100 | CNC(C)C(=O)NC(C(=O)N1CCC2C1CCN2C(=O)C(NC(=O)C(C)NC)C1CCCCC1)C1CCCCC1 (stereo not drawn) [Example 110, N-(1-Cyclohexyl-2-{4-[2-cyclohexyl-2-(2-methylamino-propionylamino)-acetyl]-hexahydro-pyrrolo[3,2-b]pyrrol-1-yl}-2-oxo-ethyl)-2-methylamino-propionamide] | 1000 to 10000
21 | < 100 | < 100 | CNC(C)C(=O)NC(C(=O)N1CC(c2c[nH]c3cc(F)ccc23)C2C1CCN2C(=O)C(NC(=O)C(C)NC)C1CCCCC1)C1CCCCC1 (stereo not drawn) [Example 111, N-{1-Cyclohexyl-2-[4-[2-cyclohexyl-2-(2-methylamino-propionylamino)-acetyl]-6-(6-fluoro-1H-indol-3-yl)-hexahydro-pyrrolo[3,2-b]pyrrol-1-yl]-2-oxo-ethyl}-2-methylamino-propionamide] | < 100
